Test [1] can be described thus: Small angle x-ray diffraction of glucose-treated model membranes: structure and cholesterol domains (Example 4). The conditions noted are these: for effect on membrane structure compared to control: 0 hours, 1:30 drug-to-phospholipid mole ratio, glucose 200 mg/dL. The protocol: Multilamellar vesicles (MLVs) were prepared as binary mixtures of DLPC (1.0 or 2.5 mg total phospholipid per sample) and cholesterol at a fixed cholesterol-to-phospholipid (C/P) mole ratio of 0.6:1. Component lipids (in chloroform) were transferred to 13×100 mm borosilicate culture tubes and combined with vehicle (ethanol) or an equal volume of fatty acid, vitamin E, or ATM stock solutions, each adjusted to achieve desired treatment concentrations. Samples were shell-dried under nitrogen gas and placed under vacuum for 1 h to remove residual solvent. After desiccation, each sample was resuspended in 1.0 mL glucose-containing saline to yield final phospholipid concentrations of 1.0 or 2.5 mg/mL (for lipid peroxidation or x-ray diffraction analysis, respectively). Lipid suspensions were then vortexed for 3 min at ambient temperature to form MLVs.
The membrane structural effects of glucose and the various compounds examined in this study were measured at 0, 72, and 96 hour intervals. Membrane lipid vesicles were oriented for x-ray diffraction analysis as described by others (e.g., Herbette et al., Biophys. J., vol. 20(2), pages 245-272 (1977)). Briefly, a 100 μL aliquot (containing 250 μg MLV) was aspirated from each sample and transferred to a Lucite® sedimentation cell fitted with an aluminum foil substrate upon which a given sample could be collected by centrifugation. Samples were then loaded into a Sorvall AH-629 swinging bucket rotor (DuPont Corp., Wilmington, Del.) and centrifuged at 35,000 g, 5° C., for 90 min.
After centrifugal orientation, sample supernatants were aspirated and aluminum foil substrates, each supporting a single membrane pellet, were removed from the sedimentation cells. […]
The d-space for any given membrane multibilayer is a measurement of the unit cell periodicity of the membrane lipid bilayer (e.g., the distance from the center of one lipid bilayer to the next including surface hydration), and is calculated from Bragg's Law, hλ=2 d sin θ, where h is the diffraction order, λ is the wavelength of the x-ray radiation (1.54 Å), d is the membrane lipid bilayer unit cell periodicity, and θ is the Bragg angle equal to one-half the angle between the incident beam and scattered beam.
The presence of cholesterol domains in a given membrane sample results in the production of distinct Bragg (diffraction) peaks having singular periodicity values of 34 and 17 Å (typically referred to as first- and second-order cholesterol domain peaks). Under the specific temperature and relative humidity conditions established for these experiments, the second-order, 17 Å cholesterol domain peak was well-delineated from other, neighboring cholesterol and phospholipid diffraction peaks and was thus used to quantitate relative cholesterol domain peak intensity. […]

For another test, the system named is human sdLDL. In words: Copper-induced sdLDL oxidation, TBARS (Example 6). The format is biochemical. As to conditions: 1.0 μM to 10.0 μM; 2 hr copper oxidation. As to the method: An experiment to study the antioxidant effect of EPA in small dense LDL (“sdLDL”) was performed. EPA was purchased from Sigma-Aldrich (Saint Louis, Mo.) and solubilized in ethanol to 1 mM under nitrogen atmosphere. Vitamin E (α-tocopherol) was purchased from Sigma-Aldrich and prepared in ethanol at 1.0 mM (c=3.06×10^4 M^−1 cm^−1 at 294 nm) just prior to experimental use. All test compounds were further diluted in ethanol or aqueous buffer as needed.
Venous blood was collected from healthy volunteers into vacutainer tubes containing sodium EDTA. Plasma was separated by centrifugation at 3000 g for 25 min at 4° C. and adjusted to a density of 1.020 g/mL with KBr. […]
LDL and sdLDL subfractions (0.6 mL each) were incubated with either 10 μL vehicle (ethanol) or 10 μL drug stock solution for 30 min to 1 hr at 37° C. […] Sample TBARS concentrations were determined spectrophotometrically by measuring sample absorbances against a standard curve derived from the hydrolysis of 1,1,3,3-tetramethoxypropane.
Data are presented as mean±S.D. for (N) separate samples or treatment groups. Differences between groups were analyzed using the two-tailed, Student's t-test (for comparisons between only two groups) or ANOVA followed by Dunnett or Student-Newman-Keuls multiple comparisons post-hoc analysis (for comparisons between three or more groups). […]

Test [2] has as its system Human umbilical vein endothelial cells (HUVECs). In words: Nitric oxide release from HUVECs incubated with pretreated oxidized sdLDL (Example 7). The format is cell-based. The conditions noted are these: oxidized sdLDL pretreated at 10.0 μM. As to the method:
All samples, with the exception of non-oxidized sdLDL controls, were subjected to copper-induced oxidation for 1 hour. Human umbilical vein endothelial cells (HUVECs) were incubated with the various sdLDL samples, stimulated with calcium, and monitored for nitric oxide (NO) and peroxynitrite (ONOO^-) release using nanosensor technology.

Turning to `CC/C=C\C/C=C\C/C=C\C/C=C\C/C=C\CCCC(=O)O` [EPA, cis-5,8,11,14,17-Eicosapentaenoic acid], the “effect on membrane structure compared to control” value in test [1] is reported as “no appreciable effect on membrane structure”. Besides, the sdLDL oxidation entry in the test with human sdLDL was “inhibited sdLDL oxidation over a broad range of concentrations”. Also, in test [2], the “increase of NO release as compared to non-oxidized sdLDL treatment” value is recorded as 23% and the “increase of NO release as compared to oxidized LDL treatment” value is listed as 53%.
As to `Cc1c(C)c2c(c(C)c1O)CC[C@@](C)(CCC[C@H](C)CCC[C@H](C)CCCC(C)C)O2` [vitamin E, α-tocopherol, reference compound], the “effect on membrane structure compared to control” value in test [1] is given as “no appreciable effect on membrane structure”. Besides, the cholesterol domain peaks result in test [1] (96 hours of oxidative conditions) is reported as “disproportionately greater”. Further, in test [1] (any experimental time point (FIG. 5)), the “effect on cholesterol domain formation (cholesterol domain peak intensity) compared to control” value is recorded as “no significant effect on cholesterol domain formation”. Besides, in the test on human sdLDL, the sdLDL oxidation result is reported as “did not inhibit sdLDL oxidation except at the highest concentration”.

Values taken from US20180028480A1, “METHODS OF REDUCING OR PREVENTING OXIDATIVE MODIFICATION OF MEMBRANE POLYUNSATURATED FATTY ACIDS” (Amarin Pharmaceuticals Ireland Limited, priority 2015, published 2018).
